Experimental findings from paper PMC7104201 (iScience, 2020) are described below.

The test has as its target CatB (Homo sapiens, UniProt P07858). The format is biochemical. The note with it: pH 5.

Consider CA-074 methyl ester [CatB inhibitor], for which the “blocking of CatB-dependent cleavage of EBOV GP” value is “effectively blocked”.
